Results taken from PubChem BioAssay AID1918991 (Molecular Pharmacology Branch, DTP, NCI, 2023).
Values belong to the molecule of their own block, whether it stands above or below them.

System: 186277-243-T-J2-PDC complex spheroid growth
Assay: Anticancer human tumor 186277-243-T-J2-PDC patient-derived colon adenocarcinoma cell line growth inhibition [AhR]
Conditions: for IC50: curve of first compound; for viability, T/C: stronger effect = lower value
In short: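 Spheroids combined tumor cells with HUVEC endothelial cells and human MSCs as stroma. AhR antagonists were paired with standard or investigational drugs, each dosed in half-log steps down from near clinical Cmax, or from 10 microM where Cmax was unknown.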
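Also: spheroids exposed to compounds for seven days before the viability read.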
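For viability, T/C in this document: luminescent signal used as a stand-in for viable cell amount; 100% = DMSO vehicle control wells.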

IC50 (second compound 0.1 µM): 5.42 µM
IC50 (second compound 0.316 µM): 5.94 µM
IC50 (second compound 1 µM): 5.71 µM
IC50 (second compound 3.16 µM): 5.56 µM
IC50 (second compound 10 µM): 4.82 µM
Structure (SMILES): CC1(C)CCC(CN2CCN(c3ccc(C(=O)NS(=O)(=O)c4ccc(NCC5CCOCC5)c([N+](=O)[O-])c4)c(Oc4cnc5[nH]ccc5c4)c3)CC2)=C(c2ccc(Cl)cc2)C1 + CC(CO)NC(=O)c1cc(-c2ccc(Cl)cc2)nn(-c2cnn(C)c2)c1=O
viability, T/C (second compound 0.1 µM, first compound 0.0316 µM): 99.3%
viability, T/C (second compound 0.1 µM, first compound 0.1 µM): 113%
viability, T/C (second compound 0.1 µM, first compound 0.316 µM): 102%
viability, T/C (second compound 0.1 µM, first compound 1 µM): 101%
viability, T/C (second compound 0.1 µM, first compound 3.16 µM): 84.8%
viability, T/C (second compound 0.1 µM, first compound 10 µM): 10.5%
viability, T/C (second compound 0.316 µM, first compound 0.0316 µM): 108%
viability, T/C (second compound 0.316 µM, first compound 0.1 µM): 94.8%
viability, T/C (second compound 0.316 µM, first compound 0.316 µM): 96.7%
viability, T/C (second compound 0.316 µM, first compound 1 µM): 94.2%
viability, T/C (second compound 0.316 µM, first compound 3.16 µM): 96.2%
viability, T/C (second compound 0.316 µM, first compound 10 µM): 11.8%
viability, T/C (second compound 1 µM, first compound 0.0316 µM): 112%
viability, T/C (second compound 1 µM, first compound 0.1 µM): 98.4%
viability, T/C (second compound 1 µM, first compound 0.316 µM): 109%
viability, T/C (second compound 1 µM, first compound 1 µM): 95.8%
viability, T/C (second compound 1 µM, first compound 3.16 µM): 92.1%
viability, T/C (second compound 1 µM, first compound 10 µM): 10.1%
viability, T/C (second compound 3.16 µM, first compound 0.0316 µM): 95.2%
viability, T/C (second compound 3.16 µM, first compound 0.1 µM): 85.8%
viability, T/C (second compound 3.16 µM, first compound 0.316 µM): 83.1%
viability, T/C (second compound 3.16 µM, first compound 1 µM): 94.2%
viability, T/C (second compound 3.16 µM, first compound 3.16 µM): 88.1%
viability, T/C (second compound 3.16 µM, first compound 10 µM): 10.2%
viability, T/C (second compound 10 µM, first compound 0.0316 µM): 77.5%
viability, T/C (second compound 10 µM, first compound 0.1 µM): 96.7%
viability, T/C (second compound 10 µM, first compound 0.316 µM): 83.9%
viability, T/C (second compound 10 µM, first compound 1 µM): 78.7%
viability, T/C (second compound 10 µM, first compound 3.16 µM): 74.4%
viability, T/C (second compound 10 µM, first compound 10 µM): 9.34%

IC50 (second compound 0.1 µM): > 3 µM
IC50 (second compound 0.316 µM): > 3 µM
IC50 (second compound 1 µM): > 3 µM
IC50 (second compound 3.16 µM): > 3 µM
IC50 (second compound 10 µM): > 3 µM
Structure (SMILES): CCN(c1cc(-c2ccc(CN3CCOCC3)cc2)cc(C(=O)NCc2c(C)cc(C)[nH]c2=O)c1C)C1CCOCC1 + CC(CO)NC(=O)c1cc(-c2ccc(Cl)cc2)nn(-c2cnn(C)c2)c1=O
viability, T/C (second compound 0.1 µM, first compound 0.00949 µM): 97.8%
viability, T/C (second compound 0.1 µM, first compound 0.03 µM): 106%
viability, T/C (second compound 0.1 µM, first compound 0.0949 µM): 82.9%
viability, T/C (second compound 0.1 µM, first compound 0.3 µM): 94.5%
viability, T/C (second compound 0.1 µM, first compound 0.949 µM): 102%
viability, T/C (second compound 0.1 µM, first compound 3 µM): 85.1%
viability, T/C (second compound 0.316 µM, first compound 0.00949 µM): 109%
viability, T/C (second compound 0.316 µM, first compound 0.03 µM): 95.8%
viability, T/C (second compound 0.316 µM, first compound 0.0949 µM): 89.8%
viability, T/C (second compound 0.316 µM, first compound 0.3 µM): 93.3%
viability, T/C (second compound 0.316 µM, first compound 0.949 µM): 90.3%
viability, T/C (second compound 0.316 µM, first compound 3 µM): 91.9%
viability, T/C (second compound 1 µM, first compound 0.00949 µM): 83.5%
viability, T/C (second compound 1 µM, first compound 0.03 µM): 90.5%
viability, T/C (second compound 1 µM, first compound 0.0949 µM): 88.2%
viability, T/C (second compound 1 µM, first compound 0.3 µM): 87.8%
viability, T/C (second compound 1 µM, first compound 0.949 µM): 82.2%
viability, T/C (second compound 1 µM, first compound 3 µM): 101%
viability, T/C (second compound 3.16 µM, first compound 0.00949 µM): 96.5%
viability, T/C (second compound 3.16 µM, first compound 0.03 µM): 101%
viability, T/C (second compound 3.16 µM, first compound 0.0949 µM): 89.4%
viability, T/C (second compound 3.16 µM, first compound 0.3 µM): 80.7%
viability, T/C (second compound 3.16 µM, first compound 0.949 µM): 92.3%
viability, T/C (second compound 3.16 µM, first compound 3 µM): 85.8%
viability, T/C (second compound 10 µM, first compound 0.00949 µM): 88.5%
viability, T/C (second compound 10 µM, first compound 0.03 µM): 69.8%
viability, T/C (second compound 10 µM, first compound 0.0949 µM): 80.5%
viability, T/C (second compound 10 µM, first compound 0.3 µM): 87.4%
viability, T/C (second compound 10 µM, first compound 0.949 µM): 73.5%
viability, T/C (second compound 10 µM, first compound 3 µM): 82.6%
